Several values for one entry are separate records, joined by “and”; a condition that tells them apart may be missing. Equal entries are not always repeated. Where two headings read alike, the source gives them in different places.
Legend:
[1] = test system: 3',5'-Cyclic AMP Phosphodiesterase (PDE); assay: Inhibition of 3',5'-cyclic AMP phosphodiesterase (PDE) isolated from rabbit kidney, low affinity (Fraction I, high Km); assay type: biochemical; conditions: for IC50: cAMP approx. 5 × 10^-4 M
[2] = test system: histamine-induced bronchospasm; conditions: F. L. Rose et al, J. Chem. Soc.; cited from earlier work
male Sprague-Dawley rats = assay: Antianxiety activity: stimulation of drinking activity of the rat in a passive avoidance behavioral paradigm; assay type: in vivo; conditions: for minimal effective dose: read-out: Dose wherein the first statistically behavioral difference (p<0.05 or less) from the control group occurs; for ED50: read-out: ED50 (dose producing 50% of maximum effect)
Procedure: In Tables V and VI the antianxiety activity of the listed compounds is measured as a function of the compounds ability to stimulate drinking activity of the rat in a passive avoidance behavioral paradigm. For these tests male Sprague-Dawley rats weighing 175 to 200 grams were water deprived for 48 hr. and placed in environmental chambers in which water was available with a punishment contingency. Each accumulated 3 sec. of contact with the drinking tube caused a constant current source (1.2 mA DC) to be applied to the drinking tube for 2 sec. Test sessions were 5 min. in duration, commencing with delivery of the first shock. Twelve rats were treated orally 1 hr. or intraperitoneally 30 min. prior to testing. The tests are scored based on the number of shocks accepted by the treated animals at a specific dose and were compared to twelve saline control animals tested on the same day.
In Table V the activity is expressed as an ED50. The ED50 is the dose of the compound in mg/kg producing 50% of maximum effect and is shown for both oral (p.o.) and interperitoneal (i.p.) routes of administration.
In Table VI the activity is expressed as the dose (i.p.) wherein the first statistically behavioral difference (p<0.05 or less) from the control group occurs. Included for comparison are the commonly prescribed antianxiety drugs, chlordiazepoxide and diazepam.

[3] = Potentiation of the depressant effects of ethanol, loss of the righting reflex in the mouse; conditions: po
Procedure: For this test male Swiss-Webster mice weighing 18 to 20 grams were food deprived 18 hours prior to the experiment. […] Drugs were given orally in 20 ml/kg of 1% CMC. Ethanol (5 gm/kg p.o.) was given 30 minutes after drug injection. Immediately after treatment animals were placed in individual clear plastic containers.
The righting reflex was recorded as being present when the animal would voluntarily roll to its side when placed on its back. Animals were tested for righting reflex every 15 minutes.

male Swiss-Webster mice = assay: Potentiation of the depressant effects of sodium barbital, loss of the righting reflex in the mouse; assay type: in vivo
Procedure: This dose of barbital sodium (100 mg/kg) was then injected i.p. in a group of ten mice. Fifteen min. later the mice were injected i.p. with the dose of compound to be tested. […] Mice were tested at 15 min. intervals for one hour after injection of test compound. Responses were recorded on an all-or-none basis; loss of righting reflex for 5 min. or longer was the effective criteria.

[4] = test system: 3',5'-Cyclic-AMP phosphodiesterase (PDE); assay: Inhibition of PDE from beef heart, high affinity (Fraction II, low Km); assay type: biochemical; conditions: cAMP 1.6 × 10^-7 M, relative to theophylline
[5] = test system: 3',5'-Cyclic AMP Phosphodiesterase (PDE); assay: Inhibition of 3',5'-cyclic AMP phosphodiesterase (PDE) isolated from rabbit lung, low affinity (Fraction I, high Km); assay type: biochemical; conditions: for IC50: cAMP approx. 5 × 10^-4 M
[6] = test system: 3',5'-Cyclic-AMP phosphodiesterase (PDE); assay: Inhibition of PDE from rabbit lung, high affinity (Fraction II, low Km); assay type: biochemical; conditions: cAMP 1.6 × 10^-7 M, relative to theophylline
central nevous system = conditions: in vivo; cited from earlier work
phosphodiesterase = conditions: cited from earlier work
[7] = i.p., 15 min after sodium barbital 100 mg/kg i.p.
[8] = ip, 0.5 h, i.p., 30 min prior to testing

Structure (SMILES)	α (relative inhibitory activity as compared with theophylline) [1]	IC50 ([1]; read-out: I50) [µM]	α Heart [4]	ED50 (male Sprague-Dawley rats; [8]) [mg/kg]	minimal effective dose (male Sprague-Dawley rats; ip, 0.5 h, i.p.) [mg/kg]	ED50 (male Sprague-Dawley rats; po, 1 hr prior to testing) [mg/kg]	NOAEL ([3]; mouse) [mg/kg]	Dose of compound which produced loss of righting reflex in 50% of treated animals (male Swiss-Webster mice; mouse, in vivo, ip) [mg/kg]	α Lung [6]	other results
CCCc1nc(C)cc2nc(N)nn12 [COMPOUND 1]	0.14	1600	–	–	–	–	–	–	–	Protection from histamine-induced bronchospasm [2]: capable of protecting animals from histamine-induced bronchospasm
CCOC(=O)c1cnn2c(C)cc(C)nc12 [COOC2 H5]	0.22	1000	–	–	–	–	–	–	–	–
CNC1=Nc2ccc(Cl)cc2C(c2ccccc2)=[N+]([O-])C1 [Chlordiazepoxide, chlordiazepoxide, reference compound]	–	–	–	–	–	–	–	–	–	minimal effective dose (male Sprague-Dawley rats; ip, 0.5 h): 10 mg/kg; NOAEL ([3]; in vivo): 4 mg/kg; Dose of compound which produced loss of righting reflex in 50% of treated animals (male Swiss-Webster mice; [7]): 6.4 ± 0.4 mg/kg
CN1C(=O)CN=C(c2ccccc2)c2cc(Cl)ccc21 [Diazepam, diazepam, reference compound]	–	–	–	–	–	–	–	–	–	minimal effective dose (male Sprague-Dawley rats; ip, 0.5 h): 20 mg/kg; Dose of compound which produced loss of righting reflex in 50% of treated animals (male Swiss-Webster mice; [7]): 0.5 ± 0.8 mg/kg
Cc1cc(C)n2ncc(Br)c2n1 [Example I, 3-Bromo-5,7-dimethyl pyrazolo[1,5-a]pyrimidine]	2.20	100	1.7	10.5 ± 0.8	10	9.5 ± 3.5	400	61.9 ± 12.1	0.7	α (relative inhibitory activity as compared with theophylline) [5]: 2.4; IC50 ([5]; read-out: I50): 270 µM
Cc1cc(C)n2nccc2n1 [H, 5,7-dimethyl pyrazolo[1,5-a]pyrimidine, reference compound]	0.20	800	–	20.9 ± 4.6	40	43.6 ± 6.1	300	118.8 ± 15.7	–	α (relative inhibitory activity as compared with theophylline) [5]: 0.32; IC50 ([5]; read-out: I50): 2000 µM
Cc1cc(C)n2ncc(Cl)c2n1 [II, 3-Chloro-5,7-dimethyl pyrazolo[1,5-a]pyrimidine]	1.33	240	1.7	2.4 ± 4.3	10	7.8 ± 4.5	200	60.9 ± 20.8	2.2	α (relative inhibitory activity as compared with theophylline) [5]: 3.1; IC50 ([5]; read-out: I50): 210 µM
Cc1cc(C)n2ncc(I)c2n1 [III, 5,7-Dimethyl 3-iodo pyrazolo[1,5-a]pyrimidine]	1.23	130	1.5	10.1 ± 6.8	20	95.9 ± 11.7	200	142.8 ± 10.1	3.5	α (relative inhibitory activity as compared with theophylline) [5]: 3.5; IC50 ([5]; read-out: I50): 210 µM
Cc1cc(C)n2ncc(F)c2n1 [IV, 5,7-Dimethyl 3-fluoro pyrazolo[1,5-a]pyrimidine]	–	–	–	40.7 ± 11.9	40	76.2 ± 10.8	100	148.5 ± 4.5	–	–
CCc1cc(C)nc2c(Br)cnn12 [XIV, 3-Bromo-7-ethyl-5-methylpyrazolo[1,5-a]pyrimidine]	–	–	4.0	–	–	–	–	–	7.5	–
CCCc1cc(C)nc2c(Br)cnn12 [XV, 3-Bromo-5-methyl-7-n-propylpyrazolo[1,5-a]pyrimidine]	–	–	6.5	–	–	–	–	–	7.5	–
CCc1cc(CC)n2ncc(Br)c2n1 [XVI, 3-Bromo-5,7-diethylpyrazolo[1,5-a]pyrimidine]	–	–	6.0	–	–	–	–	–	7.4	–
CCCc1cc(CCC)n2ncc(Br)c2n1 [XVII, 3-Bromo-5,7-di-n-propylpyrazolo[1,5-a]pyrimidine]	–	–	3.0	–	–	–	–	–	5.5	–
CCCc1nc(C)cn2c(N)nnc12 [compound 2]	–	–	–	–	–	–	–	–	–	Protection from histamine-induced bronchospasm [2]: capable of protecting animals from histamine-induced bronchospasm
Cn1c(=O)c2[nH]cnc2n(C)c1=O [theophylline]	–	–	–	–	–	–	–	–	–	IC50 ([1]; theophylline reference run of each compound line, read-out: I50 (theophylline)): 160 µM and 220 µM and 320 µM; Cardiovascular effects (central nevous system): rapid beating; Central nervous system effect (central nevous system): gives general stimulation to the central nevous system; IC50 ([5]; theophylline reference run of each compound line, read-out: I50 (Theophylline)): 640 µM and 740 µM; Selectivity of phosphodiesterase inhibition (phosphodiesterase): does not selectively inhibit phosphodiesterase

Reference: US4093617A, “3,5,7-Trisubstituted pyrazolo[1,5-a]pyrimidines” (ICN Pharmaceuticals, Inc., priority 1976, dated 1978)
